# PMC8252455, “Prediction of a clinically effective dose of THY1773, a novel V 1B receptor antagonist, based on preclinical data” (Biopharmaceutics & Drug Disposition, 2021)
# Experiments:
# [1] = Blood-to-plasma ratio in human whole blood; type: in vitro ADME; details: 1 μmol/L
# Protocol: The blood‐to‐plasma ratios of THY1773 were analyzed using pooled fresh whole blood (anticoagulant: EDTA‐2K) and control plasma separated from fresh whole blood in parallel from rats, dogs, and humans. Whole blood and control plasma containing 1 μmol/L THY1773 were incubated at 37°C for 30 min in a shaking water bath. The incubated whole blood was centrifuged at 2000 × g for 10 min at 4°C to obtain plasma. An aliquot of each plasma sample (i.e., isolated plasma from incubated whole blood and control plasma) was mixed with 8 volumes of acetonitrile/methanol (9:1, vol/vol) containing the IS. After centrifugation at 3974 × g for 10 min at 4°C, the supernatant was subjected to liquid chromatography/tandem mass spectrometry (LC‐MS/MS) analysis. The blood‐to‐plasma ratio was calculated by dividing the […].
# [2] = Parallel artificial membrane permeability assay (PAMPA); type: in vitro ADME
# Protocol: The membrane permeability of THY1773 was measured using a parallel artificial membrane permeability assay (PAMPA) Evolution instrument (Pion Inc.). A “sandwich” plate consisting of a donor bottom plate with stir bars and an acceptor filter plate was used for the experiment. A donor plate was prepared by the addition of THY1773 to diluted PRISMA HT at pH 6.2 (final concentration of 12.5 μmol/L). An acceptor plate was coated with GIT‐0 lipid solution, followed by the addition of acceptor sink buffer (pH 7.4). After incubation for 4 h at room temperature, the concentrations of THY1773 in the reference, donor, and acceptor solutions were measured with a UV plate reader. The apparent permeability (Papp) was calculated using the PAMPA Evolution software (version 3.1; Pion Inc.).
# [3] = Prediction of human CLtotal (FCIM, two-species allometry, IVIVE)
# From the text: Of the many reported methods for the prediction of human CL, the top two methods reported by Ring et al. (2011) were selected based on prediction accuracy; that is, the unbound fraction corrected intercept method (FCIM) and two‐species‐based allometry (rat and dog) described by Equations (2) and (3), respectively (Tang, Hussain, Leal, Mayersohn, & Fluhler, 2007; Tang & Mayersohn, 2005): (2) CLhuman(mL/min/kg)=33.35×(a/Rfu)^0.77/Humanbodyweight(kg) (3) CL=a×(Humanbodyweight)^0.628 where the allometric coefficient (a) is obtained from the intercept of the simple allometry log–log plot between rats and dogs, and Rfu is the ratio of unbound fraction in plasma between rats and humans. Human body weight was assumed to be 70 kg. The hepatic CL (CLliver) was also predicted by physiologically based in vitro–in vivo extrapolation (IVIVE) method using physiological parameters listed in Table 1 based on the well stirred model (Yang, Jamei, Yeo, Rostami‐Hodjegan, & Tucker, 2007).
# Since the CLliver was underestimated in rats and dogs from CLint in liver microsomes, the ratio of observed in vivo CLint and predicted CLint was calculated as the empirical scaling factor (ESF) for the extrapolation of CLliver from in vitro data. Human CLliver was predicted from CLint in HLMs with and without applying the average of ESF derived from rats and dogs. The total plasma clearance (CLtotal) was calculated by Equation (4): (4) CLtotal=QH×fu×(CLint/fu,mic)/QH+(fu/Rb)×(CLint/fu,mic)+CLrenal where QH is hepatic blood flow, fu is the free fraction in plasma, fu,mic is the fraction unbound in HLMs, Rb is blood‐to‐plasma ratio, and CLrenal is renal clearance. The fu,mic value was calculated using the Simcyp population based simulator (Version 16 R1; Simcyp Ltd.). The CLrenal was estimated by multiplying fu by glomerular filtration rate (GFR), assuming glomerular filtration only.
# The fold error of the difference between observed and predicted human PK parameters was calculated by dividing the predicted value by the observed value.
smiles,measurement,setting,value
CC(C)NC(=O)Cn1c(-c2cccc(Cl)c2)nn(-c2ccc(CCN3CCOCC3)cc2)c1=O [THY1773],Blood-to-plasma ratio,[1],Theoretical limit (experimental data: 0.54)
same,Papp in PAMPA,"[2]; donor pH 6.2, 12.5 μmol/L, 4 h, room temperature",128.9 10^−6 cm/s
same,Permeability in the gut (assessment from PAMPA),[2]; pH 6.2,high permeability
same,Predicted human CLtotal,[3]; FCIM,1.07 mL/min/kg
same,Predicted human CLtotal,[3]; IVIVE method with ESF,1.06 mL/min/kg
same,Predicted human CLtotal,[3]; IVIVE method without ESF,0.25 mL/min/kg
same,Predicted human CLtotal,[3]; Two species allometry (rat and dog),3.73 mL/min/kg
